Key:
patients with mCRPC = assay: PROpel phase III trial: safety, adverse events (CTCAE v.4.03); format: in vivo, human
Description: Trial design and interventions. This was a double-blind, placebo-controlled, phase Ill trial. Eligible patients were randomized (1:1) to treatment with abiraterone acetate (1000 mg once daily) in combination with either olaparib (300 mg twice daily) or placebo. All patients received prednisone or prednisolone (5 mg twice daily) as per the abiraterone acetate label requirement. Randomization was stratified by distant metastasis type (bone only/visceral/other) at baseline and by docetaxel treatment at the mHSPC stage of disease (yes or no). Study treatment continued until objective imaging-based progressive disease assessed by investigator (using Response Evaluation Criteria in Solid Tumors [RECIST 1.1] for soft tissue lesions and Prostate Cancer Working Group-3 [PCWG-3] criteria for bone lesions), unacceptable toxicity, or withdrawal of consent. Following objective disease progression, further treatment options were at the discretion of the investigator. Patients could continue study treatment if the investigator believed, that the patient could continue to receive clinical benefit, was not experiencing serious toxicity and there was no available better alternative treatment. Crossover from placebo to receive olaparib in combination with abiraterone acetate was not allowed.
Safety was assessed through reporting of adverse events and serious adverse events (according to Common Terminology Criteria for Adverse Events v.4.03) based on physical examination findings, vital signs, ECG findings and laboratory test results.
Statistical analysis. Efficacy was analyzed for the intention-to-treat population and safety was analyzed for all patients who received any amount of abiraterone acetate, olaparib, or placebo. Patients who received at least one dose of olaparib were included in the abiraterone acetate and olaparib arm.

[1] = system: patients with progressive mCRPC who had not received chemotherapy; settings: COU-AA-302; cited from earlier work
[2] = male, human, in vivo, 15.7 months

CC(=O)O[C@H]1CC[C@@]2(C)C(=CC[C@@H]3[C@@H]2CC[C@]2(C)C(c4cccnc4)=CC[C@@H]32)C1 [abiraterone acetate and placebo, (3β)-17-(3-pyridinyl) androsta-5,16-dien-3-yl acetate]
Anemia, % of patients (patients with mCRPC; All Grades): (16.4) %
Anemia, number of patients (patients with mCRPC; All Grades): 65
Any adverse event, % of patients (patients with mCRPC; All Grades): (94.9) %
Any adverse event, number of patients (patients with mCRPC; All Grades): 376
Arthralgia, % of patients (patients with mCRPC; All Grades): (17.7) %
Arthralgia, number of patients (patients with mCRPC; All Grades): 70
Back pain, % of patients (patients with mCRPC; All Grades): (18.4) %
Back pain, number of patients (patients with mCRPC; All Grades): 73
Cardiac failure adverse events, % of patients (patients with mCRPC; All Grades): (1.3) %
Cardiac failure adverse events, number of patients (patients with mCRPC; All Grades): 5
Constipation, % of patients (patients with mCRPC; All Grades): (13.9) %
Constipation, number of patients (patients with mCRPC; All Grades): 55
Decreased appetite, % of patients (patients with mCRPC; All Grades): (5.8) %
Decreased appetite, number of patients (patients with mCRPC; All Grades): 23
Diarrhea, % of patients (patients with mCRPC; All Grades): (9.3) %
Diarrhea, number of patients (patients with mCRPC; All Grades): 37
Dizziness, % of patients (patients with mCRPC; All Grades): (6.3) %
Dizziness, number of patients (patients with mCRPC; All Grades): 25
Embolic and thrombotic arterial adverse events, % of patients (patients with mCRPC; All Grades): (2.5) %
Embolic and thrombotic arterial adverse events, number of patients (patients with mCRPC; All Grades): 10
Fatigue or asthenia, % of patients (patients with mCRPC; All Grades): (28.3) %
Fatigue or asthenia, number of patients (patients with mCRPC; All Grades): 112
Hypertension, % of patients (patients with mCRPC; All Grades): (16.4) %
Hypertension, number of patients (patients with mCRPC; All Grades): 65
Nausea, % of patients (patients with mCRPC; All Grades): (12.6) %
Nausea, number of patients (patients with mCRPC; All Grades): 50
Peripheral edema, % of patients (patients with mCRPC; All Grades): (11.4) %
Peripheral edema, number of patients (patients with mCRPC; All Grades): 45
Urinary tract infection, % of patients (patients with mCRPC; All Grades): (7.8) %
Urinary tract infection, number of patients (patients with mCRPC; All Grades): 31
Vomiting, % of patients (patients with mCRPC; All Grades): (9.1) %
Vomiting, number of patients (patients with mCRPC; All Grades): 36
Anemia, % of patients (patients with mCRPC; Grade ≥ 3): 3.3%
Anemia, number of patients (patients with mCRPC; Grade ≥ 3): 13
Any adverse event, % of patients (patients with mCRPC; Grade ≥ 3): (38.4) %
Any adverse event, number of patients (patients with mCRPC; Grade ≥ 3): 152
Arthralgia, % of patients (patients with mCRPC; Grade ≥ 3): (0.5) %
Arthralgia, number of patients (patients with mCRPC; Grade ≥ 3): 2
Back pain, % of patients (patients with mCRPC; Grade ≥ 3): (1.0) %
Back pain, number of patients (patients with mCRPC; Grade ≥ 3): 4
COVID-19, % of patients (patients with mCRPC; Grade ≥ 3): 2.0%
COVID-19, cases (patients with mCRPC; Grade ≥ 3): 8
Constipation, % of patients (patients with mCRPC; Grade ≥ 3): (0.3) %
Constipation, number of patients (patients with mCRPC; Grade ≥ 3): 1
Decreased appetite, number of patients (patients with mCRPC; Grade ≥ 3): 0
Diarrhea, % of patients (patients with mCRPC; Grade ≥ 3): (0.3) %
Diarrhea, number of patients (patients with mCRPC; Grade ≥ 3): 1
Dizziness, number of patients (patients with mCRPC; Grade ≥ 3): 0
Fatigue or asthenia, % of patients (patients with mCRPC; Grade ≥ 3): (1.5) %
Fatigue or asthenia, number of patients (patients with mCRPC; Grade ≥ 3): 6
Hypertension, % of patients (patients with mCRPC; Grade ≥ 3): (3.3) %
Hypertension, number of patients (patients with mCRPC; Grade ≥ 3): 13
Nausea, % of patients (patients with mCRPC; Grade ≥ 3): (0.3) %
Nausea, number of patients (patients with mCRPC; Grade ≥ 3): 1
Peripheral edema, % of patients (patients with mCRPC; Grade ≥ 3): (0.3) %
Peripheral edema, number of patients (patients with mCRPC; Grade ≥ 3): 1
Urinary tract infection, % of patients (patients with mCRPC; Grade ≥ 3): (1.0) %
Urinary tract infection, number of patients (patients with mCRPC; Grade ≥ 3): 4
Vomiting, % of patients (patients with mCRPC; Grade ≥ 3): (0.3) %
Vomiting, number of patients (patients with mCRPC; Grade ≥ 3): 1
Anemia, % of patients (patients with mCRPC; Grade ≥ 3, listed as Abiraterone and Placebo): (3.3) %
COVID-19, % of patients (patients with mCRPC; all grades): 4.5%
COVID-19, cases (patients with mCRPC; all grades): 18
Any serious adverse event, % of patients (patients with mCRPC; human, in vivo, 15.7 months): (27.0) %
Any serious adverse event, number of patients (patients with mCRPC; human, in vivo, 15.7 months): 107
Death due to an adverse event, % of patients (patients with mCRPC; human, in vivo, 15.7 months): (4.3) %
Death due to an adverse event, number of patients (patients with mCRPC; human, in vivo, 15.7 months): 17
Discontinuation of abiraterone acetate due to an adverse event, % of patients (patients with mCRPC; human, in vivo, 15.7 months): (8.8) %
Discontinuation of abiraterone acetate due to an adverse event, number of patients (patients with mCRPC; human, in vivo, 15.7 months): 35
Discontinuation of olaparib/placebo due to an adverse event, % of patients (patients with mCRPC; human, in vivo, 15.7 months): (7.8) %
Discontinuation of olaparib/placebo due to an adverse event, number of patients (patients with mCRPC; human, in vivo, 15.7 months): 31
Dose reduction of abiraterone acetate due to an adverse event, % of patients (patients with mCRPC; human, in vivo, 15.7 months): (4.3) %
Dose reduction of abiraterone acetate due to an adverse event, number of patients (patients with mCRPC; human, in vivo, 15.7 months): 17
Dose reduction of olaparib/placebo due to an adverse event, % of patients (patients with mCRPC; human, in vivo, 15.7 months): (5.6) %
Dose reduction of olaparib/placebo due to an adverse event, number of patients (patients with mCRPC; human, in vivo, 15.7 months): 22
Interruption of abiraterone acetate because of an adverse event, % of patients (patients with mCRPC; human, in vivo, 15.7 months): (22.0) %
Interruption of abiraterone acetate because of an adverse event, number of patients (patients with mCRPC; human, in vivo, 15.7 months): 87
Interruption of olaparib/placebo because of an adverse event, % of patients (patients with mCRPC; human, in vivo, 15.7 months): (25.3) %
Interruption of olaparib/placebo because of an adverse event, number of patients (patients with mCRPC; human, in vivo, 15.7 months): 100
Deep-vein thrombosis, patients (patients with mCRPC; in vivo): three
pulmonary embolism, cases (patients with mCRPC; in vivo): seven
Deep-vein thrombosis, % of patients (patients with mCRPC; [2]): 0.8%
new primary cancers, % of patients (patients with mCRPC; [2]): 2.5%
new primary cancers, reports (patients with mCRPC; [2]): 10
pulmonary embolism, % of patients (patients with mCRPC; [2]): 1.8%
median radiographic progression-free survival [1]: 16.5 months
